Data set [1] concerns miRNA-26a. In words: Level of miRNA-26a in exosomes isolated from treated fibroblasts (real-time qPCR). It counts as cell-based, human. How it is done:
After treating the subcultured passage 27 FB with betaine for 48 hours, the medium was collected and centrifuged at 3000×g for 30 minutes. After centrifugation, only the supernatant was recovered and transferred to Ultra-15 Centrifugal Filter Units (Amicon, MERCK, C7715) and centrifuged at 4000×g for 40 minutes. Only the supernatant was recovered, Total Exosome Isolation Reagent (Invitrogen, Cat No #4478539) was added at ½ the volume of the supernatant, and the mixture was allowed to react at 4° C. overnight. The next day, after centrifugation at 10000×g for 1 hour, the supernatant was removed by suction, and then a final exosome pellet was re-suspended in PBS. The exosomes obtained in the present example are hereinafter referred to as “fibroblast-derived exosomes”.
2×10^6 FB cells were inoculated onto a 75 T flask, cultured for 24 hours, and then treated with betaine (0.1, 1 and 10 mM). After the cells were additionally cultured for 48 hours, exosomes were isolated by the method of Example 1-2, and microRNA (hereinafter described as miRNA) was extracted from the exosomes isolated from the culture medium using an RNeasy plus mini kit (Qiagen, Germany) according to the manufacturer's protocol.
Real-time qPCR was performed with a tagman probe targeting mature RNA. The relative expression level of the intracellular target miRNA was normalized with the expression level of RNU48, which is used as a housekeeping gene during miRNA quantification, and then shown as a relative %. The relative expression of miRNA-26a in exosomes was normalized with the expression of […], which is used as a housekeeping gene during quantification of miRNA in fibroblast exosomes, and then shown as a relative %. For all real-time qPCR analyses, an Applied Biosystems 7500 (Applied Biosystems) apparatus was used.
The FB was treated with the material shown in the following Table 1 to isolate exosomes in the same manner as in Example 1-1, and the level of miRNA-26a was confirmed in the exosomes by the method in Example 1-4.
Thereafter, after fibroblasts (FB) were treated with the Camellia japonica flower extract for 48 hours, exosomes were isolated by the method in Example 1-2. Furthermore, the level of miR-26a was confirmed in exosomes isolated from the culture medium by the method in Example 1-4. As a result of the confirmation, it could be confirmed that the level of miRNA-26a was increased in the exosomes isolated from the FB treated with the Camellia flower extract at a concentration of 50 ppm compared to the control which was an untreated group (FIG. 9).
On the technique in general: Quantitative PCR measures a nucleic acid by following its amplification.

Data set [2] concerns MyoD. The experiment in a line: Myogenesis marker protein level in differentiated C2C12 cells, western blotting. It counts as cell-based, mouse. Conditions: differentiated C2C12, 48 hours; betaine 0.1 or 0.5 mM or exosomes, FIG. 7. As for the experimental part: (§1) C2C12 cells were inoculated onto a 6-well plate at a concentration of 5×10^5 cells/well and cultured for 24 hours. Thereafter, the medium was exchanged with a medium supplemented with 2% horse serum, and the cells were further cultured for 72 hours to promote the differentiation of C2C12 cells. After the differentiation was completed, the cells were treated with betaine (0.1 and 0.5 mM) or fibroblast-derived exosomes and further cultured for 48 hours. Thereafter, cells were lysed by adding a lysis buffer (1% NP40, 0.05 M Tris-HCl, pH 7.5, 0.15 M NaCl and 0.01 MgCl2) including a protease inhibitor to the C2C12 cells, and the concentration of proteins was measured by a […] (BCA) method. The quantified protein was separated with SDS-PAGE and transferred to a PVDF membrane, and the protein expression level of each muscle loss marker was confirmed with an antibody.

Data set [3] has as its system atrogin-1. In words: Muscle loss marker protein level in differentiated C2C12 cells, western blotting. Conditions: differentiated C2C12, 48 hours; betaine 0.1 or 0.5 mM or exosomes, FIG. 6. It counts as cell-based, mouse. How it is done: as §1
The test system of data set [4] is MURF1. The description is as above. It counts as cell-based, mouse. Conditions: differentiated C2C12, 48 hours; betaine 0.1 or 0.5 mM or exosomes, FIG. 6. How it is done:
as §1

Data set [5] has as its system myostatin. Described as above. It counts as cell-based, mouse. Conditions: differentiated C2C12, 48 hours; betaine 0.1 or 0.5 mM or exosomes, FIG. 6. As for the experimental part:
as §1

The subject of data set [6] is MURF1. The experiment in a line: Muscle loss marker expression in differentiated C2C12 cells, qPCR. It counts as cell-based, mouse. Conditions: differentiated C2C12, 48 hours; betaine 0.1 mM or exosomes about 20 μg/ml, FIG. 4A. How it is done:
(§2) C2C12 cells were inoculated onto a 6-well plate at a concentration of 1.5×10^5 cells/well and cultured for 24 hours. Thereafter, the medium was exchanged with a medium supplemented with 2% horse serum, and the cells were further cultured for 72 hours to promote the differentiation of C2C12 cells. After the differentiation was completed, the cells were treated with betaine at 0.1 mM or fibroblast-derived exosomes (about 20 μg/ml) obtained in Example 1-2 and further cultured for 48 hours. Total RNA was extracted with an RNeasy plus mini kit and cDNA was synthesized with SuperScript™ III (Invitrogen, USA). Thereafter, qPCR was performed with a target gene taqman probe, and then analysis was performed.
(§3) C2C12 cells were inoculated onto a 6-well plate at a concentration of 1.5×10^5 cells/well and cultured for 24 hours. Thereafter, the medium was exchanged with a medium supplemented with 2% horse serum, and the cells were further cultured for 72 hours to promote the differentiation of C2C12 cells. After the differentiation was completed, the cells were treated with the Camellia japonica flower extract at 50 ppm or the exosomes (about 20 μg/ml) obtained in Example 4-1 and further cultured for 48 hours. Thereafter, the change in expression of the target gene was confirmed by qPCR by the method in Example 2-1.

Data set [7] deals with myostatin. The data set is described as above. It counts as cell-based, mouse. Conditions: differentiated C2C12, 48 hours; betaine 0.1 mM or exosomes about 20 μg/ml, FIG. 4C. How it is done:
as §2, §3

Data set [8] concerns human fibroblast HS68 (FB). The experiment in a line: Cytotoxicity of betaine, CCK-8 cell viability in fibroblasts. It counts as cell-based. Conditions: betaine at different concentrations, 24 hours, CCK-8, FIG. 1A. As for the experimental part: (§4) As human skin dermal cells, normal human dermal fibroblasts (NHDF, fibroblasts) isolated from adult samples were purchased from LONZA (Cat. CC-2511). As […], C2C12 cells, which are myoblasts isolated and cultured from C3H mice, were purchased from ATCC (CRL-1772).
(§5) Subcultured passage 27 human fibroblast HS68 (hereinafter referred to as FB) or C2C12 was inoculated onto a 96-well plate at a concentration of 1×10^4 cells/well and cultured in an incubator at 5% CO2 and 37° C. for 24 hours. After culturing, cells were treated with betaine at different concentrations and additionally cultured for 24 hours, and an untreated group was used as a control. After the cells were washed with PBS, the cells were additionally cultured with CCK-8 (DONGJIN, CK04-11) for 2 hours, and absorbance was measured at 450 nm using a microplate reader. From the measured results, relative cell viability according to the betaine treatment concentration was calculated by setting the value of the control to 100.

The subject of data set [9] is MyoD. The experiment in a line: Myogenesis marker expression in differentiated C2C12 cells, qPCR. It counts as cell-based, mouse. Conditions: differentiated C2C12, 48 hours; betaine 0.1 mM or exosomes about 20 μg/ml, FIG. 5. As for the experimental part: as §2
Data set [10] concerns atrogin-1. The experiment in a line: Muscle loss marker expression in differentiated C2C12 cells, qPCR. Conditions: differentiated C2C12, 48 hours; betaine 0.1 mM or exosomes about 20 μg/ml, FIG. 4B. It counts as cell-based, mouse. How it is done:
as §2

Data set [11] concerns C2C12 cells. In words: Cytotoxicity of betaine, CCK-8 cell viability in myofibroblasts. It counts as cell-based, mouse. Conditions: betaine at different concentrations, 24 hours, CCK-8, FIG. 1B. As for the experimental part:
as §4, §5

With Copper Tripeptide, the “miRNA-26a level in exosomes, fold change (vs. control)” value in data set [1] (FB treated with 10 ppm) worked out at 1.743 fold.

Consider `O=C1C[C@@H](c2ccc(O)cc2)Oc2cc(O)cc(O)c21` [Naringenin], for which the “miRNA-26a level in exosomes, fold change (vs. control)” value in data set [1] (FB treated with 10 uM) worked out at 1.854 fold.

`O=c1c(O)c(-c2cc(O)c(O)c(O)c2)oc2cc(O)cc(O)c12` [Myricetin]: in data set [1] (FB treated with 25 uM), the “miRNA-26a level in exosomes, fold change (vs. control)” value turned out to be 1.599 fold.

Regarding L-carnosine, the “miRNA-26a level in exosomes, fold change (vs. control)” value in data set [1] (FB treated with 5 ppm (0.0005%)) stood at 1.537 fold.

Turning to Kojyl carboxy dipeptide-23, in data set [1] (FB treated with 10 ppm), the “miRNA-26a level in exosomes, fold change (vs. control)” value is 1.483 fold.

On to `C[N+](C)(C)CC(=O)O` [Betaine], for which the “protein expression of MyoD (western blotting)” value in data set [2] is recorded as “unchanged”. For the same compound, the “protein expression of atrogin-1 (western blotting)” value in [3] is on record as “no change”. The “protein expression of MURF1 (western blotting)” value in data set [4] was “no change”. Further, the “protein expression of myostatin (western blotting)” value in [5] is listed as “no change”. In addition, in data set [6], the “expression of MURF1 (qPCR) vs. control” value was “slightly increased”. Also, the “expression of myostatin (qPCR) vs. control” value in [7] is recorded as “almost the same level”. Also, the “cell viability of FB” value in [8] is “no change”. Besides, the “expression of MyoD (qPCR) vs. control” value in data set [9] was “increased compared to the control, but was not at a significant level”. In data set [10], the “expression of atrogin-1 (qPCR) vs. control” value is listed as “slightly increased”. In addition, the “cell viability of C2C12” value in data set [11] is reported as “no change”. Further, the “miRNA-26a level in exosomes, fold change (vs. control)” value in data set [1] (FB treated with 1 mM) was found to be 1.821 fold. Further, the “level of miRNA-26a in exosomes vs. untreated control” value in data set [1] (FB treated with betaine 0.1, 1 and 10 mM, 48 hours, FIG. 3) is on record as “increased”.

For the compound Camelliaside A, the “miRNA-26a level in exosomes, fold change (vs. control)” value in [1] (FB treated with 1 ppm) is 1.956 fold.

As to `COc1ccc(-c2cc(=O)c3c(OC)c(OC)c(OC)c(OC)c3o2)cc1OC` [Nobiletin], the “miRNA-26a level in exosomes, fold change (vs. control)” value in [1] (FB treated with 30 uM) is recorded as 1.447 fold.

These data come from patent US20230390234A1, “COMPOSITION INHIBITING MUSCLE LOSS OR PROMOTING MUSCLE FORMATION THROUGH SKIN-DERIVED EXOSOMES” (EX HEALTHCARE INC., priority 2021, published 2023).
